Test results taken from patent US20030083339A1, “Compositions and methods for treating colorectal polyps and cancer” (priority 2001, published 2003).
Marks after values point to notes of the source that are not given here. One block for each molecule: values may come before it.

How the values were obtained:
[1] = system: colon polyp or adenocarcinoma; assay: Example 1: course of oral PD123319 treatment of colon polyps and colorectal adenocarcinoma; format: in vivo
Method: PD123319, an angiotensin II receptor (AT2 receptor) antagonist, is available in 1-mg, 10-mg, 50-mg, 100-mg, 250 mg, 500 mg, and 1000 mg tablets for oral administration and in 1-mg, 10-mg, 50-mg, 100-mg, 500 mg, 1000 mg, 5000 mg, and 10,000 mg suppositories for rectal administration.
PD123319 is indicated for the treatment of colorectal cancer including non-malignant polyps of the colon and colorectal adenocarcinoma. There are no known contradictions to treatment with PD123319.
A 12-20 week course of therapy yields a remission of adenocarcinoma (e.g., tumor number and/or volume) in greater than 79% of individuals that are diagnosed with at least one adenocarcinoma. Total dose per day is determined by severity (number and/or cancer stage) as assessed by a treating veterinarian or physician. A preferred course of treatment for a patient with colorectal polyps is 10-30 mg (medication) per kg (body weight) per day. A preferred course of treatment for a patient with colorectal adenocarcinoma is 20-30 mg/kg/day. In certain cases, a course of treatment for a patient with colorectal adenocarcinoma is 100 mg/kg/day administered orally or as a suppository. A preferred maintenance or chemoinhibitory course of therapy is typically 1.0 to 10 mg/kg. […]

AT2 receptor = target: T1, AT2 receptor (Mus musculus, UniProt P35374); settings: read-out: IC50 for the inhibition of ligand-receptor binding; cited from earlier work
T1 sequence (P35374 1-363): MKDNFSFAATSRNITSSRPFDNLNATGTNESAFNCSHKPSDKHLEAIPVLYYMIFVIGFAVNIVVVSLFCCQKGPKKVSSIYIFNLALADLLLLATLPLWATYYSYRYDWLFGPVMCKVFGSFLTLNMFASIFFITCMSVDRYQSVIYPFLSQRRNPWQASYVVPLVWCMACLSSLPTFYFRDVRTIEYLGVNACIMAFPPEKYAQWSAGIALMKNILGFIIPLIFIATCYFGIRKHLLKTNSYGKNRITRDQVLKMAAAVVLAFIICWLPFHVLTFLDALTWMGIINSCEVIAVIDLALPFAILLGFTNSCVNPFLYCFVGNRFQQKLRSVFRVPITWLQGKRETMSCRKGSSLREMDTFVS

[2] = chronic administration, 30 mg/kg/day, rats; cited from earlier work
[3] = system: O^6-methylguanine adduct in colon DNA; assay: colonic O^6-methylguanine adduct level after AOM, immuno-slot-blot
Method: AT2 receptor blocker PD123319 treatment (15 mg/kg/12 h, gavage administration and 50 μg/ml in drinking tap water) was initiated 3 h prior to the AOM treatment. The control group for the AOM treatment received saline. Mice for the short term study were sacrificed 6 h or 24 h after AOM treatment.
Immediately after the mice were sacrificed by cervical dislocation, the colon was excised, washed with phosphate-buffered saline, divided into proximal and distal segments, and snap-frozen in liquid N2. Small portions of each lobe of the liver were also removed and frozen in the same manner. Tissue was digested in a lysis buffer consisting of 10 mM Tris-HCl, pH 7.4, 1 mM EDTA, 1% SDS, 5× SSC and 0.2 mg/ml Proteinase K. DNA was extracted by phenol/chloroform/isoamyl alcohol and precipitated with ice-cold ethanol by standard protocols. Samples were then treated with RNase A (50 mg/ml) and DNA was fragmented by sonication. The concentration of DNA was determined by the absorbance at 260 nm.
DNA samples were heat-denatured for 10 min, immediately chilled on ice, and mixed with an equal volume of 2 M ammonium acetate. […] Relative blot intensities were measured by densitometry using a Fluor-S image analyzer (Bio-Rad Laboratories, Inc., Hercules, Calif., United States of America).

hepatic CYP2E1 = hepatic CYP2E1 protein expression after AOM, Western blot of liver microsomes
Method: AT2 receptor antagonist PD123,319 treatment (15 mg/kg/12 h, gavage administration, and 50 μg/ml in drinking tap water) was initiated 3 h prior to the AOM treatment. The liver was dissected out and the microsomal fractions were subjected to SDS-polyacrylamide gel electrophoresis followed by immunoblotting with anti-human CYP2E1 antibodies.
AT2 receptor blocker PD123319 treatment (15 mg/kg/12 h, gavage administration and 50 μg/ml in drinking tap water) was initiated 3 h prior to the AOM treatment. The control group for the AOM treatment received saline. Mice for the short term study were sacrificed 6 h or 24 h after AOM treatment. […] The remaining tissues were frozen in liquid nitrogen and stored at −80° C.
Tissues were individually homogenized by a Polytron homogenizer in three volumes of 1 mM Tris-HCl buffer, pH 7.5, containing 1 mM EDTA, 0.25 M sucrose and protease inhibitor cocktail. The supernatant from 10,000× g centrifugation of the homogenate for 15 min was further centrifuged at 100,000× g for 1 h. The microsomal membranes were suspended in 100 mM NaH2PO4, pH 7.4, 10 mM MgCl2, 20% glycerol, and protease inhibitor cocktail, and 25 μg of the membrane protein was subjected to Western blot analysis.
The liver microsomal membranes were lysed with 0.5 ml lysis buffer (10 mM Tris-HCl (pH 7.4), 1% SDS). After sonication, the lysate was boiled for 5 min. […]

colon tumors [4] = assay: AOM-induced colon tumors in mouse strain crossbred from 129/Ola and C57BL/6J (Table 3); format: in vivo; settings: 23 weeks; for Body Weight / Colon Tumors Multiplicity = average number of tumors/mouse / Colon Tumors Prevalence (%) = percent of tumor-bearing mice / Colon Tumors Total Number: AOM 10 mg/kg I.P. 4 consecutive weeks
Method: The colons and livers were macroscopically examined. […] Tumor size was measured with a caliper. […] In addition, the size of the tumors in wild type mice was large (over 55% of tumors 22 mm^3). The tumors were predominantly observed in the lower half of the descending colon.

colon tumors [5] = assay: AOM-induced colon tumors in F2 mice crossbred with SWR/J (Table 4); format: in vivo, mouse; settings: AOM 10 mg/kg I.P. 4 consecutive weeks, 26 weeks
Method: . […] The colons and livers were macroscopically examined. […] Tumor size was measured with a caliper.
In Example 2, clear-cut results were obtained that the AT2 receptor is involved in AOM-induced colon cancer. A concern was that this might be true only in the mouse strain crossbred from 129/OIa and C57BL/6J mouse strains. In order to overcome this problem, the AT2-KO mice in this crossbred strain were back-crossed with SWR/J mice, whose susceptibility to AOM is established. During the course of back-crossing, similar experiments were performed as described in Example 1, using F2 male wild and AT2-KO mice.

[6] = system: cytochrome P450 proteins (CYP1A1, 1A2 and 2E1) in liver; assay: inducibility of CYP1A1, 1A2 and 2E1 in the liver after AOM; format: in vivo, mouse; settings: AOM 15 mg/kg bolus I.P.
From the text: Anti-rabbit anti-human CYP1A1/1A2 and CYP2E1 antisera were obtained from Dr. F. P. Guengerich, Department of Biochemistry, Vanderbilt University. See Soucek et al., (1995) Biochem. 34:16013-16021; Shimada et al., (1992) Mol. Pharmacol. 41:856-864. The cross-reactivities of these antibodies to mouse CYP1A1/1A2 and 2E1 have been characterized.
The inducibilities of CYP1A1, 1A2 and 2E1 in the liver were exaimed.

[7] = daily administration of the pressor dose (10-50 mg/kg/day), man and animals; cited from earlier work
[8] = target: T2, mouse angiotensin II type 2 receptor (mouse, UniProt P35374 1-363); assay: radioligand-receptor binding on mouse liver and colon plasma membranes
T2 construct: Native receptor in mouse tissue (liver and colon plasma membranes, liver nuclei), not a recombinant construct; also called AT2 receptor; AT2
T2 sequence: T1 sequence (P35374 1-363)

[9] = AOM 10 mg/kg bolus I.P., both wild type and AT2-null mice

- effect on AOM-induced CYP2E1 downregulation in the liver (hepatic CYP2E1; wild type mice, pretreatment 15 mg/kg/12 h by gavage and 0.35 mg/kg/h in drinking water, AOM 10 mg/kg I.P., 24 h): significantly attenuated
Molecule: Cc1cc(Cn2cnc3c2C[C@@H](C(=O)O)N(C(=O)C(c2ccccc2)c2ccccc2)C3)ccc1N(C)C [PD123319]
- colon polyp or adenocarcinoma number as determined by endoscopy ([1]; 4-8 week course, oral administration): significant reduction
- remission of adenocarcinoma (tumor number and/or volume) ([1]; 12-20 week course of therapy, individuals diagnosed with at least one adenocarcinoma): greater than 79 % of individuals
- IC50 (AT2 receptor): 10 nM
- adverse effects [2]: does not show any adverse effects
- effect on AOM-induced increase in the colonic O^6-methylguanine level ([3]; wild type mice, 15 mg/kg/12h by gavage and 0.35 mg/kg/h in drinking water, 24 h after AOM 10 mg/kg): markedly attenuated

- Colon Tumors Multiplicity = average number of tumors/mouse (colon tumors [4]; AT2-KO mice): 0.11
- Colon Tumors Prevalence (%) = percent of tumor-bearing mice (colon tumors [4]; AT2-KO mice): 11.1%
- Colon Tumors Total Number (colon tumors [4]; AT2-KO mice): 1
- Colon Tumors Multiplicity = average number of tumors/mouse (colon tumors [4]; Control (wild type) mice): 7.38
- Colon Tumors Prevalence (%) = percent of tumor-bearing mice (colon tumors [4]; Control (wild type) mice): 100%
- Colon Tumors Total Number (colon tumors [4]; Control (wild type) mice): 59
- share of tumors 22 mm^3 (large tumors) (colon tumors [4]; wild type mice, AOM 10 mg/kg I.P. 4 weekly): over 55%
- Colon Tumors Multiplicity (colon tumors [5]; AT2-KO F2 male mice): 6.3
- Colon Tumors Prevalence (%) (colon tumors [5]; AT2-KO F2 male mice): 100.0%
- Colon Tumors Total Number (colon tumors [5]; AT2-KO F2 male mice): 50
- Colon Tumors Volume (mm^3) = total tumor volume/number of tumors (colon tumors [5]; AT2-KO F2 male mice): 19.8 ± 3.0 mm^3
- Colon Tumors Multiplicity (colon tumors [5]; Control (wild) F2 male mice): 12.0
- Colon Tumors Prevalence (%) (colon tumors [5]; Control (wild) F2 male mice): 100.0%
- Colon Tumors Total Number (colon tumors [5]; Control (wild) F2 male mice): 96
- Colon Tumors Volume (mm^3) = total tumor volume/number of tumors (colon tumors [5]; Control (wild) F2 male mice): 36.8 ± 3.2* mm^3
- effect on hepatic cytochrome P450 levels ([6]; AT2-KO mice, 24 h after injection): decreased substantially
- effect on levels of cytochrome P450 proteins in liver ([6]; wild type mouse liver): significantly increased
- effect on colonic O^6-methylguanine levels [3, 9]: time-dependently increased
- effect on CYP2E1 protein expression in liver (hepatic CYP2E1; [9]): significantly downregulated
Molecule: CN=[N+](C)[O-] [AOM, azoxymethane]
- Body Weight (colon tumors [4]; AT2-KO mice): 36.5 ± 1.6 g
- Body Weight (colon tumors [4]; Control (wild type) mice): 36.5 ± 4.3 g

Molecule: CCCCc1nc(Cl)c(CO)n1Cc1ccc(-c2ccccc2-c2nn[nH]n2)cc1 [losartan]
- side effects [7]: no serious side effects

- binding result [8]: binds
Molecule: XRVYIHPI (sarcosine at position 1 in place of Asp; 125I label, X stands for sarcosine) [[^125I]Sar^1·Ile^8·Ang II]
